Experimental data reported in US20240263128A1, “METHOD OF PRODUCING BIOLOGICAL MATERIAL” (NIPPON TELEGRAPH AND TELEPHONE CORPORATION, priority 2021, published 2024).

Legend:
[1] = system: Cyanidiosyzon merolae; assay: Fat and oil accumulation in unicellular red algae (BODIPY staining, fluorescence microscopy); assay type: cell-based; conditions: 2 mmol/L dimethyl 2-oxoglutarate, MA2 culture medium, suspension culture under light, 24 hours after addition, compared with culture without promoter; FIG. 2 vs FIG. 4
Procedure: Unicellular red algae were cultured in suspension under a light condition and a promoter was added thereto. An MA2 culture medium was used as a culture medium. Cyanidiosyzon merolae were used as unicellular red algae. Dimethyl 2-oxoglutarate was used as a promoter. The promoter was added so that the final concentration of dimethyl 2-oxoglutarate would be 2 mmol/L. After the addition of the promoter, the cultivation was continued for 24 hours more. Thereafter, a bright field image was obtained for the cultured unicellular red algae using a microscope. In addition, the fat and oil of the unicellular red algae were stained with commercially available BODIPY (registered trademark) from the Cosmo Bio, Inc. Then, a fluorescence observation image of the unicellular red algae with stained fat and oil was acquired by using a fluorescence microscope. In addition, cultivation was similarly conducted as described above except that no promoter was added. Then, acquisition of a bright field image, staining of fat and oil, and acquisition of a fluorescence observation image were carried out also for the cultured unicellular red algae.

[2] = system: Cyanidiosyzon merolae; assay: Amount of starch in unicellular red algae after cultivation; assay type: cell-based; conditions: 2 mmol/L dimethyl 2-oxoglutarate, MA2 culture medium, suspension culture under light, 24 hours after addition, compared with control without promoter; average of three independent tests, FIG. 5
Procedure: Unicellular red algae were cultured in suspension under a light condition and a promoter was added thereto. An MA2 culture medium was used as a culture medium. Cyanidiosyzon merolae were used as unicellular red algae. Dimethyl 2-oxoglutarate was used as a promoter. The promoter was added so that the final concentration of dimethyl 2-oxoglutarate would be 2 mmol/L. After the addition of the promoter, the cultivation was continued for 24 hours more. Thereafter, a bright field image was obtained for the cultured unicellular red algae using a microscope. In addition, the fat and oil of the unicellular red algae were stained with commercially available BODIPY (registered trademark) from the Cosmo Bio, Inc. Then, a fluorescence observation image of the unicellular red algae with stained fat and oil was acquired by using a fluorescence microscope. The same cultivation as in test 1 was performed, and the amount of starch contained in the unicellular red algae after the cultivation was determined. FIG. 5 is a graph showing an example of the influence of addition of a promoter on the amount of accumulation of starch. […] In FIG. 5, “control” represents the results obtained for the unicellular red algae cultured without adding a promoter to the culture medium. […]

With `COC(=O)CCC(=O)C(=O)OC` [promoter, dimethyl 2-oxoglutarate] the “accumulation of fat and oil (fluorescence caused by BODIPY staining)” value [1] was “greatly promoted” and the “amount of accumulation of starch” value [2] was “greatly promoted”.
